Measured values: patent US20080227096A1, “Assay for response to proteasome inhibitors” (Centenary Institute of Cancer Medicine and Cell Biology, priority 2006, published 2008)
Read-outs that look alike come from different tables or passages of the source.

How the values were obtained:
[1] = system: RPMI8226 myeloma cells; assay: Bortezomib resistance (proliferation inhibition) assay, RPMI8226; type: cell-based, human
Description: Cytotoxicity assays were performed essentially as described previously (16). For myeloma cell lines, some modifications were made due to their slow growth rate, non-adherence to the culture plate and sensitivity to sparse plating. Briefly, cells were seeded at 10,000 per well in 96-well plates in RPMI-1640 without phenol red (which interferes with detection of fluorescence). Bortezomib (Millennium Pharmaceuticals; Johnson & Johnson Pharmaceuticals) was applied in a concentration series along the long plate axis. […] The fluorescence, measured on a plate reader (Wallac), was proportional to the number of viable cells at the end point. […]
(§1) Briefly, myeloma cell lines, prostate cancer cell lines and lymphoid cell lines were cultured in RPMI-1640 supplemented with 10% foetal calf serum, 100 units/mL penicillin G and 100 μg/mL streptomycin. […] Quantitation of spliced and unspliced XBP-1 and determination of sensitivity to Bortezomib was carried out as previously described (Examples 1.1, 1.2 and 2.1, respectively).
(§2) H929 and RPMI8226 myeloma cells were transduced with virus as follows. […] Total XBP-1 and sensitivity to Bortezomib was determined as previously described (Example 1.1 and Example 2.1, respectively).

[2] = system: refractory myeloma; conditions: cited from earlier work
[3] = system: prostate cancer cell line LNCaP; assay: Bortezomib resistance (proliferation inhibition) assay, LNCaP; type: cell-based, human; conditions: compared with other non-myeloma cell lines, 5 days proliferation
Description: Cytotoxicity assays were performed essentially as described previously (16). For myeloma cell lines, some modifications were made due to their slow growth rate, non-adherence to the culture plate and sensitivity to sparse plating. Briefly, cells were seeded at 10,000 per well in 96-well plates in RPMI-1640 without phenol red (which interferes with detection of fluorescence). Bortezomib (Millennium Pharmaceuticals; Johnson & Johnson Pharmaceuticals) was applied in a concentration series along the long plate axis. After 5 days of proliferation, cells were permeabilised in situ by adding 5% by volume of 21 X Triton X-100 buffer (10 mM TrisHCl pH 7.4, 5 mM EDTA, 0.1% Triton X-100) and Sybr I Green (Invitrogen) 1:4000. The lysate was mixed thoroughly with a multi-channel pipette. One cycle of freeze and thaw was performed to ensure complete lysis. The fluorescence, measured on a plate reader (Wallac), was proportional to the number of viable cells at the end point. […]
as §1

[4] = system: relapsed myeloma; conditions: patients with relapsed myeloma, randomised trial, cited from earlier work
[5] = system: H929 myeloma cells; assay: Bortezomib resistance (proliferation inhibition) assay, H929; type: cell-based, human
Description: Cytotoxicity assays were performed essentially as described previously (16). For myeloma cell lines, some modifications were made due to their slow growth rate, non-adherence to the culture plate and sensitivity to sparse plating. Briefly, cells were seeded at 10,000 per well in 96-well plates in RPMI-1640 without phenol red (which interferes with detection of fluorescence). Bortezomib (Millennium Pharmaceuticals; Johnson & Johnson Pharmaceuticals) was applied in a concentration series along the long plate axis. After 5 days of proliferation, cells were permeabilised in situ by adding 5% by volume of 21 X Triton X-100 buffer (10 mM TrisHCl pH 7.4, 5 mM EDTA, 0.1% Triton X-100) and Sybr I Green (Invitrogen) 1:4000. The lysate was mixed thoroughly with a multi-channel pipette. One cycle of freeze and thaw was performed to ensure complete lysis. The fluorescence, measured on a plate reader (Wallac), was proportional to the number of viable cells at the end point. The IC50 was determined as the concentration of drug that inhibited proliferation to 50% of the untreated controls (see FIG. 5A-5E).
as §2

[6] = molecular target: P-glycoprotein (Homo sapiens, UniProt P08183); conditions: cited from earlier work
[7] = system: myeloma cells; conditions: direct inhibition of NF-κB; cited from earlier work
[8] = system: myeloma; conditions: phase III randomised control trial; cited from earlier work
[9] = molecular target: P-glycoprotein (P-gp) (Homo sapiens, UniProt P08183); conditions: cyclosporin D derivative; cited from earlier work
[10] = system: relapsed myeloma; conditions: single agent, relapsed disease; cited from earlier work
[11] = system: myeloma; conditions: cited from earlier work

Sequence of P-glycoprotein (P08183 whole entry): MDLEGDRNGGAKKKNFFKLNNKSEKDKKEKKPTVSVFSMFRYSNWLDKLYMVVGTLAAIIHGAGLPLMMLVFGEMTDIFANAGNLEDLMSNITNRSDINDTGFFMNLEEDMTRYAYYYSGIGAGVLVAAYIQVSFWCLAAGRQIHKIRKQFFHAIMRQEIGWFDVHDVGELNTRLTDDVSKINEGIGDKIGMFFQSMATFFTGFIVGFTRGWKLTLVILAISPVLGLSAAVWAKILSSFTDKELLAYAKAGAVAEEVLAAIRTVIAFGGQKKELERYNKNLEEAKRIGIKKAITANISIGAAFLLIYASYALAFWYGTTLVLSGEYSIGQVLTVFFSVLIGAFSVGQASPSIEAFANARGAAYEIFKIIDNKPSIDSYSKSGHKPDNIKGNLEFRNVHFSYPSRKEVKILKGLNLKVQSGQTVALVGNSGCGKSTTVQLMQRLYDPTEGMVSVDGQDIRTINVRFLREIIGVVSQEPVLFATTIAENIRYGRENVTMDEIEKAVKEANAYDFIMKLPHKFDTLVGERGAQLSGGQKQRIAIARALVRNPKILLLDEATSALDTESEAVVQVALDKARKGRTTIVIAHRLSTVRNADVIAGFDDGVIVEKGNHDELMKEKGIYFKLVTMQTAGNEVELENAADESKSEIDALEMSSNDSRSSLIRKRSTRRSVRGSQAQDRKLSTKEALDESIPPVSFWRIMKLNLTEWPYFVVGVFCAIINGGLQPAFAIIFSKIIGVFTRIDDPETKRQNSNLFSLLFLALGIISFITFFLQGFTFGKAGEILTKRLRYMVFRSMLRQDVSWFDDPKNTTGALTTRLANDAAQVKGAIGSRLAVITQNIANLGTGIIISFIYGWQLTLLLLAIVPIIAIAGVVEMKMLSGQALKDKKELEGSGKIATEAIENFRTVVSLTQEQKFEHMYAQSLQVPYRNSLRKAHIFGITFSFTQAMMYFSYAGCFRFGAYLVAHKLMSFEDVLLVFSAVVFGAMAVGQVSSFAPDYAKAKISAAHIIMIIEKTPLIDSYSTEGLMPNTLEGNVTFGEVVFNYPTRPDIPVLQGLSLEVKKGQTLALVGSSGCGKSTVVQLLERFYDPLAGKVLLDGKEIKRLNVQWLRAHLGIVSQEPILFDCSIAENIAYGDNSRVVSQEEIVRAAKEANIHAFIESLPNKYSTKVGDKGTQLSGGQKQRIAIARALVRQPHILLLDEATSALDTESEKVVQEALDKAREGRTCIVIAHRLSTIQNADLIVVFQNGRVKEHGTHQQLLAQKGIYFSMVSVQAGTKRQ
Sequence of P-glycoprotein (P-gp) (P08183 whole entry): as above

CC(C)C[C@H](NC(=O)[C@H](Cc1ccccc1)NC(=O)c1cnccn1)B(O)O [Bortezomib]
change of sensitivity to Bortezomib after shRNA knockdown of XBP-1 ([1]; RPMI8226 cells, XBP-1 knockdown): No such effect on sensitivity to Bortezomib | change of sensitivity to Bortezomib after overexpression of spliced or unspliced XBP-1 cDNA ([1]; RPMI8226 transfectants vs vector control): only a small effect on sensitivity | side effects ([2]; a significant proportion of patients): fatigue, nausea, diarrhoea, thrombocytopenia, anaemia and peripheral neuropathy | overall response rate ([2]; refractory cases, phase I and II trials): ~30% | primary resistance, proportion of relapsed patients ([2]; relapsed patients): about 60% | sensitivity of cell line to Bortezomib (rank) [3]: most sensitive to Bortezomib of the non-myeloma cell lines | overall response rate ([4]; p<0.001): 38% | complete response rate [4]: 6% | one-year survival rate [4]: 80% | change of sensitivity to Bortezomib after shRNA knockdown of XBP-1 ([5]; H929 cells, XBP-1 knockdown): decrease in sensitivity to Bortezomib but the change was modest | sensitivity of cell line to Bortezomib (rank) ([5]; myeloma cell lines, 5 days proliferation): most sensitive to Bortezomib | P-glycoprotein substrate [6]: not a significant P-glycoprotein substrate

O=C(Nc1cc(Cl)cc2c1[nH]c1cnccc12)c1cccnc1 [PS-1145]
inhibition of proliferation of myeloma cells [7]: insufficient to completely inhibit the proliferation

C/C=C/C[C@@H](C)C(=O)[C@H]1C(=O)N[C@@H](C(C)C)C(=O)N(C)CC(=O)N(C)[C@@H](CC(C)C)C(=O)N[C@@H](C(C)C)C(=O)N(C)[C@@H](CC(C)C)C(=O)N[C@@H](C)C(=O)N[C@H](C)C(=O)N(C)[C@@H](CC(C)C)C(=O)N(C)[C@@H](CC(C)C)C(=O)N(C)[C@@H](C(C)C)C(=O)N1C [Valspodar]
toxicity on addition of the P-gp inhibitor [8]: increased toxicity | potency of inhibitory activity on P-gp (relative) [9]: 5 times

O=C1CCC(N2C(=O)c3ccccc3C2=O)C(=O)N1 (stereo not drawn) [thalidomide]
overall response rate [10]: ~32% | patients with at least very good partial response or complete response [10]: approximately 10%

interferon-α
effect of maintenance therapy on response and survival [11]: marginal effect in terms of prolonging response and survival
